Test results: patent US20150291565A1, “INDOLE COMPOUNDS AND THEIR USE AS ANTIMICROBIALS” (Memorial Sloan-Kettering Cancer Center, priority 2012, published 2015)
Values after ≈ are worked out from the molar mass of the structure shown. Values joined by “and” are separate entries in the source; they are usually repeats but may differ in a detail not shown here. Equal values may be shown once. Read-outs that look alike come from different tables or passages of the source.

Legend:
[1] = system: MRSA; assay: MIC against MRSA; assay type: cell-based; settings: Staphylococcus aureus
[2] = system: S. aureus ATCC 29213 (MSSA); assay: Broth dilution MIC, S. aureus ATCC 29213; assay type: cell-based; settings: Staphylococcus aureus
[3] = system: E. faecalis ATCC 29212 (VRE); assay: Broth dilution MIC, E. faecalis ATCC 29212; assay type: cell-based
[4] = system: E. faecium ATCC 700221 (VRE); assay: Broth dilution MIC, E. faecium ATCC 700221; assay type: cell-based
[5] = system: C. albicans ATCC 14053; assay: Broth dilution MIC, C. albicans ATCC 14053; assay type: cell-based; settings: Candida albicans, ATCC14053; Table 1; range 64 down to 0.12 μg/ml
Protocol: In vitro Anti-bacterial & Anti-fungal Activity Assay: All test compounds were prepared as 6.4 mg/ml stock solutions in DMSO and further diluted according to the NCCLS M7-A6 (Page 5) document with sterile water or appropriate diluent. A working stock of 256 μg/ml was used to do 1:2 serial dilutions in 96-well plates. […] The inoculums were prepared by making a direct sterile water suspension of isolated colonies from 18 to 24 hr agar plates for all organisms (Mueller Hinton, Blood Agar or SDA plates). Each bacterial suspension was adjusted to read between 0.09 and 0.11 absorbance at 620 nm. […] These were further diluted 1/100 in appropriate broth for inoculating the 96-well plates. The C. albicans suspension was adjusted to read between 70 and 75% Transmittance at 530 nm and then diluted 1/500 in RPMI+MOPS broth. All aerobic bacterial and fungal plates were incubated for 18 hrs. at 35° C. […] Plates were read using a Beckman Automated Plate Reader at 650 nm. Readings were confirmed by visual examination of plates. (See Table 1, Table 2, Table 3, and Table 4). […] It is important to note that positive results against C. albicans are often indicative of broad spectrum antifungal activity, while negative results are not necessarily conclusory of a lack of activity against other fungus.

[6] = system: Mycobacterium tuberculosis; assay: Time kill curve, liquid culture, M. tuberculosis; assay type: cell-based; settings: 1.9 micromolar; vs DMSO control; FIG. 1 left-hand graph
Protocol: Either Mycobacterium tuberculosis or Mycobacterium smegmatis liquid cultures were incubated with SKI-1 (356313) at a concentration of 1.9 micromolar and viable bacterial titer was determined over the time period indicated by culturing serial dilutions on agar media. Control cultures were treated with an equivalent volume of DMSO.

[7] = system: M. tuberculosis; assay: Testing against M. tuberculosis; assay type: cell-based; settings: recent testing
[8] = system: S. pneumoniae (ATCC 6303); assay: Thigh infection model in neutropenic CD1 mice, S. pneumoniae; settings: 24 hours; for Log reduction: vs vehicle

## c1cc(C2=NCCN2)ccc1Nc1ccc(-c2cc3ccc(C4=NCCN4)cc3[nH]2)cc1 [SKI-1]
[1]
  MIC: 9.2 µM (≈ 3.87 µg/mL)
[2]; Table 3, starting at 4 μg/ml, read-out: MIC S. aureus ATCC 29213
  MIC: 0.25 µg/mL (≈ 0.595 µM)
[2]; Table 1, range 64 down to 0.12 μg/ml, read-out: MIC S. aureus ATCC 29213
  MIC: 0.25 µg/mL (≈ 0.595 µM)
[2]; Table 2, broth dilution MIC in ug/ml, read-out: MIC S aureus ATCC 29213 MSSA
  MIC: 0.25 µg/mL (≈ 0.595 µM)
[2]; Table 4, broth dilution MIC according to CLSI standards (NAEJA), read-out: MIC MSSA S. aureus ATCC 29213
  MIC: 0.25 µg/mL (≈ 0.595 µM)
[3]; Enterococcus faecalis, Table 1, range 64 down to 0.12 μg/ml, read-out: MIC E. faecalis ATCC 29212
  MIC: 0.25 µg/mL (≈ 0.595 µM)
[3]; Enterococcus faecalis, Table 4, broth dilution MIC according to CLSI standards (NAEJA), read-out: MIC VRE E. faecalis ATCC 29212
  MIC: 0.12 µg/mL (≈ 0.285 µM)
[3]; Table 2, broth dilution MIC in ug/ml, read-out: MIC E faecalis ATCC 29212 VRE
  MIC: 0.25 µg/mL (≈ 0.595 µM)
[3]; Table 3, starting at 4 μg/ml
  MIC E. faecalis ATCC 29212: 0.25 µg/mL (≈ 0.595 µM)
[4]; Enterococcus faecium, Table 1, range 64 down to 0.12 μg/ml, read-out: MIC E. faecium ATCC 700221
  MIC: ≤ 0.12 µg/mL
[4]; Enterococcus faecium, Table 3, starting at 4 μg/ml, read-out: MIC E. faecium ATCC 700221
  MIC: 0.06 µg/mL (≈ 0.143 µM)
[4]; Enterococcus faecium, Table 4, broth dilution MIC according to CLSI standards (NAEJA), read-out: MIC VRE E. faecium ATCC 700221
  MIC: 0.03 µg/mL (≈ 0.0713 µM)
[4]; Table 2, broth dilution MIC in ug/ml, read-out: MIC E faecium ATCC 700221 VRE
  MIC: 0.06 µg/mL (≈ 0.143 µM)
[5]
  MIC: 1 µg/mL (≈ 2.38 µM)
[6]
  Viable bacterial titer over time (time kill curve): bactericidal
[7]
  Activity against M. tuberculosis: comparable to that observed for M. smegmatis
[8]; 10 mg/kg BID IP
  Mean bacterial tissue burden (log10/thigh): 6.7143 log10/thigh
[8]; 10 mg/kg BID IP, listed as 356313, 10 mg/kg
  Log reduction: 2.40 Log and 2.3984 Log
[8]; 20 mg/kg BID IP
  Mean bacterial tissue burden (log10/thigh): 5.6260 log10/thigh
[8]; 20 mg/kg BID IP, listed as 356313, 20 mg/kg
  Log reduction: 3.49 Log and 3.4867 Log
